Data from patent publication US10487093B2, “Heterocyclic compounds, in particular 2-oxo-4,4,5,5,6,6,7,7-octahydrobenzoxazole derivatives, and their use as antibacterial compounds” (priority 2016, dated 2019).
Values after ≈ are worked out from the molar mass of the structure shown.

What was measured:
[1] = test system: Pseudomonas aeruginosa ATCC 27853; assay: MIC, broth microdilution (CLSI) versus planktonic bacteria; type: cell-based; settings: ATCC27853; Pseudomonas aeruginosa ATCC 27853; 16-20 h; mode of three independent experiments; read-out: MIC, Pa ATCC 27853
[2] = test system: Acinetobacter baumannii ATCC 19606; assay: as above; type: cell-based; settings: ATCC19606; Acinetobacter baumannii ATCC 19606; 16-20 h; mode of three independent experiments; read-out: MIC, Ab ATCC 19606
[3] = test system: E. coli MG1655 D87G; type: cell-based, Escherichia coli; settings: compared to the isogenic parent strain E. coli MG1655; D87G mutation on DNA gyrase subunit GyrA
[4] = test system: Haemophilus influenzae ATCC 49247; assay: MIC, broth microdilution (CLSI) versus planktonic bacteria; type: cell-based; settings: ATCC49247; Haemophilus influenzae ATCC 49247; 16-20 h; mode of three independent experiments; read-out: MIC, Hi ATCC 49247
[5] = test system: Acinetobacter baumannii NCTC 13420; assay: as above; type: cell-based; settings: NCTC13420; Acinetobacter baumannii NCTC 13420; 16-20 h; mode of three independent experiments; read-out: MIC, Ab NCTC 13420
[6] = test system: E. coli MG1655 S83L; type: cell-based, Escherichia coli; settings: compared to the isogenic parent strain E. coli MG1655; S83L mutation on DNA gyrase subunit GyrA
[7] = test system: Escherichia coli ATCC 25922; assay: MIC, broth microdilution (CLSI) versus planktonic bacteria; type: cell-based; settings: ATCC25922; Escherichia coli ATCC 25922; 16-20 h; mode of three independent experiments; read-out: MIC, Ec ATCC 25922
[8] = test system: Streptococcus pneumoniae ATCC 49619; assay: as above; type: cell-based; settings: ATCC49619; Streptococcus pneumoniae ATCC 49619; 16-20 h; mode of three independent experiments; read-out: MIC, Sp ATCC 49619
[9] = test system: human hepatic cell line (HepG2 ATCC HB-8065); assay: Human cell viability assay (CellTiter-Glo); settings: Homo sapiens, HepG2, 24 h, read-out: IC50 (μg/mL) HepG2
[10] = test system: E. coli MG1655; assay: MIC, broth microdilution (CLSI) versus planktonic bacteria; type: cell-based, Escherichia coli; settings: Escherichia coli, MG1655, read-out: MIC, Ec MG1655 WT
[11] = test system: Enterobacter cloacae NCTC 13406; assay: as above; type: cell-based; settings: NCTC13406; Enterobacter cloacae NCTC 13406; 16-20 h; mode of three independent experiments; read-out: MIC, Ecl NCTC 13406
[12] = test system: Staphylococcus aureus ATCC 29213; assay: as above; type: cell-based; settings: ATCC29213; Staphylococcus aureus ATCC 29213; 16-20 h; mode of three independent experiments; read-out: MIC, Sa ATCC 29213
[13] = test system: E. coli ATCC BAA-2452; assay: as above; type: cell-based; settings: Escherichia coli ATCC BAA-2452; 16-20 h; mode of three independent experiments; read-out: MIC, Ec ATCC BAA 2452
[14] = test system: E. coli NCTC 13476; assay: as above; type: cell-based; settings: NCTC13476; Escherichia coli NCTC 13476; 16-20 h; mode of three independent experiments; read-out: MIC, Ec NCTC 13476

Row | SMILES | MIC [1] [µg/mL] | MIC [2] [µg/mL] | Fold increase in MIC, E. coli MG1655 D87G [3] [fold] | MIC [4] [µg/mL] | MIC [5] [µg/mL] | Fold increase in MIC, E. coli MG1655 S83L [6] [fold] | MIC [7] [µg/mL] | MIC [8] [µg/mL] | IC50 [9] [µg/mL] | MIC [10] [µg/mL] | MIC [11] [µg/mL] | MIC [12] [µg/mL] | MIC [13] [µg/mL] | MIC [14] [µg/mL]
1 | COc1ccc2c3conc3c(=O)n(CCN[C@H]3CC[C@H]4[C@@H](C3)OC(=O)N4c3ccc4c(n3)NC(=O)CO4)c2c1 [Compound 11, (3aS,6S,7aR)-6-[(2-{7-methoxy-4-oxo-4H,5H-[1,2]oxazolo[3,4-c]quinolin-5-yl}ethyl)amino]-3-{3-oxo-2H,3H,4H-pyrido[3,2-b][1,4]oxazin-6-yl}-octahydro-1,3-benzoxazol-2-one] | 1 to 10 (≈ 1.83 to 18.3 µM) | 1 to 10 (≈ 1.83 to 18.3 µM) | 1 | 1 to 10 (≈ 1.83 to 18.3 µM) | < 1 | 2 | < 1 | 1 to 10 (≈ 1.83 to 18.3 µM) | 10 to 100 (≈ 18.3 to 183 µM) | < 1 | 1 to 10 (≈ 1.83 to 18.3 µM) | < 1 |  | 
2 | C=CCOc1ccc2ccc(=O)n(CCN[C@H]3CC[C@H]4[C@H](C3)OC(=O)N4c3ccc4c(n3)NC(=O)CO4)c2c1 [Compound 89, 1-(2-{[(3aS,6S,7aS)-2-oxo-3-{3-oxo-2H,3H,4H-pyrido[3,2-b][1,4]oxazin-6-yl}-octahydro-1,3-benzoxazol-6-yl]amino}ethyl)-7-(prop-2-en-1-yloxy)-1,2-dihydroquinolin-2-one] | 1 to 10 (≈ 1.88 to 18.8 µM) | < 1 |  | 1 to 10 (≈ 1.88 to 18.8 µM) | < 1 |  | < 1 | < 1 | 10 to 100 (≈ 18.8 to 188 µM) |  | 1 to 10 (≈ 1.88 to 18.8 µM) | < 1 | < 1 | 1 to 10 (≈ 1.88 to 18.8 µM)
3 | C[C@H]1COc2c(N3CCN(C)CC3)c(F)cc3c(=O)c(C(=O)O)cn1c23 [LEV, levofloxacin, reference compound] |  |  | 8 |  |  | 8 |  |  |  |  |  |  |  | 
4 | N#Cc1cnc2ccc(=O)n(CCCN[C@H]3CC[C@H]4[C@H](C3)OC(=O)N4c3ccc4c(n3)NC(=O)CO4)c2c1 [Compound 82, 5-(3-{[(3aS,6S,7aS)-2-oxo-3-{3-oxo-2H,3H,4H-pyrido[3,2-b][1,4]oxazin-6-yl}-octahydro-1,3-benzoxazol-6-yl]amino}propyl)-6-oxo-5,6-dihydro-1,5-naphthyridine-3-carbonitrile] | 1 to 10 (≈ 1.94 to 19.4 µM) | 1 to 10 (≈ 1.94 to 19.4 µM) | 1 | < 1 | 1 to 10 (≈ 1.94 to 19.4 µM) | 0.5 | < 1 | < 1 |  | < 1 | 1 to 10 (≈ 1.94 to 19.4 µM) | < 1 | 1 to 10 (≈ 1.94 to 19.4 µM) | 
5 | O=C1COc2ccc(N3C(=O)O[C@@H]4C[C@H](NCCn5c(=O)cnc6ccc(F)cc65)CC[C@H]43)nc2N1 [Compound 86, 1-(2-{[(3aR,6R,7aR)-2-oxo-3-{3-oxo-2H,3H,4H-pyrido[3,2-b][1,4]oxazin-6-yl}-octahydro-1,3-benzoxazol-6-yl]amino}ethyl)-7-fluoro-1,2-dihydroquinoxalin-2-one] | 1 to 10 (≈ 2.02 to 20.2 µM) | < 1 |  | < 1 | < 1 |  | < 1 | < 1 | 10 to 100 (≈ 20.2 to 202 µM) |  | < 1 | < 1 | < 1 | < 1
6 | O=C1COc2ccc(N3C(=O)O[C@@H]4C[C@@H](NCCn5c(=O)ccc6ccc(Oc7cccnc7)nc65)CC[C@@H]43)nc2N1 [Compound 12, 1-(2-{[(3aS,6S,7aR)-2-oxo-3-{3-oxo-2H,3H,4H-pyrido[3,2-b][1,4]oxazin-6-yl}-octahydro-1,3-benzoxazol-6-yl]amino}ethyl)-7-(pyridin-3-yloxy)-1,2-dihydro-1,8-naphthyridin-2-one] | 1 to 10 (≈ 1.76 to 17.6 µM) | 1 to 10 (≈ 1.76 to 17.6 µM) | 1 | 1 to 10 (≈ 1.76 to 17.6 µM) | 1 to 10 (≈ 1.76 to 17.6 µM) | 1 | < 1 | < 1 | > 100 | < 1 | 1 to 10 (≈ 1.76 to 17.6 µM) | < 1 |  | 
7 | N#Cc1ccc2c(ccc(=O)n2CCN[C@@H]2CC[C@@H]3[C@@H](C2)OC(=O)N3c2ccc3c(n2)NC(=O)CO3)c1 [Compound 106, 1-(2-{[(3aR,6R,7aR)-2-oxo-3-{3-oxo-2H,3H,4H-pyrido[3,2-b][1,4]oxazin-6-yl}-octahydro-1,3-benzoxazol-6-yl]amino}ethyl)-2-oxo-1,2-dihydroquinoline-6-carbonitrile] |  |  |  |  | 1 to 10 (≈ 2 to 20 µM) |  | < 1 | < 1 |  | < 1 | 1 to 10 (≈ 2 to 20 µM) | < 1 |  | 
8 | COc1ccc2ccc(=O)n(CCCN[C@@H]3CC[C@@H]4[C@@H](C3)OC(=O)N4c3ncc4c(n3)NC(=O)CO4)c2n1 [Compound 79, 1-(3-{[(3aR,6R,7aR)-2-oxo-3-{7-oxo-6H,7H,8H-pyrimido[5,4-b][1,4]oxazin-2-yl}-octahydro-1,3-benzoxazol-6-yl]amino}propyl)-7-methoxy-1,2-dihydro-1,8-naphthyridin-2-one] | 1 to 10 (≈ 1.92 to 19.2 µM) | 1 to 10 (≈ 1.92 to 19.2 µM) |  | < 1 | < 1 |  | < 1 | < 1 | 10 to 100 (≈ 19.2 to 192 µM) |  | 1 to 10 (≈ 1.92 to 19.2 µM) | < 1 |  | 
9 | COc1cnc2ccc(=O)n(CCN[C@H]3CC[C@H]4[C@H](C3)OC(=O)N4c3ccc4c(n3)NC(=O)CO4)c2c1 [Compound 42, 7-methoxy-1-{2-[(2-oxo-3-{3-oxo-2H,3H,4H-pyrido[3,2-b][1,4]oxazin-6-yl}-octahydro-1,3-benzoxazol-6-yl)amino]ethyl}-1,2-dihydro-1,5-naphthyridin-2-one] | 1 to 10 (≈ 1.97 to 19.7 µM) | 1 to 10 (≈ 1.97 to 19.7 µM) | 2 | < 1 | < 1 | 1 | < 1 | < 1 | > 100 | < 1 | < 1 | < 1 |  | 
10 | COc1ccc2ccc(=O)n(CCCN[C@H]3CC[C@H]4[C@H](C3)OC(=O)N4c3ccc4c(n3)NC(=O)CO4)c2n1 [Compound 83, 1-(3-{[(3aS,6S,7aS)-2-oxo-3-{3-oxo-2H,3H,4H-pyrido[3,2-b][1,4]oxazin-6-yl}-octahydro-1,3-benzoxazol-6-yl]amino}propyl)-7-methoxy-1,2-dihydro-1,8-naphthyridin-2-one] | 1 to 10 (≈ 1.92 to 19.2 µM) | < 1 |  | < 1 | < 1 |  | < 1 | < 1 | 10 to 100 (≈ 19.2 to 192 µM) |  | < 1 | < 1 | < 1 | < 1
11 | COc1ccc2ccc(=O)n(CCN(CCN)[C@H]3CC[C@H]4[C@@H](C3)OC(=O)N4c3ccc4c(n3)NC(=O)CO4)c2n1 [Compound 13, 1-(2-{[(3aS,6S,7aR)-2-oxo-3-{3-oxo-2H,3H,4H-pyrido[3,2-b][1,4]oxazin-6-yl}-octahydro-1,3-benzoxazol-6-yl](2-aminoethyl)amino}ethyl)-7-methoxy-1,2-dihydro-1,8-naphthyridin-2-one] | 1 to 10 (≈ 1.82 to 18.2 µM) |  |  | 10 to 100 (≈ 18.2 to 182 µM) | 10 to 100 (≈ 18.2 to 182 µM) |  | 1 to 10 (≈ 1.82 to 18.2 µM) | 1 to 10 (≈ 1.82 to 18.2 µM) | > 100 |  | 10 to 100 (≈ 18.2 to 182 µM) | < 1 |  | 1 to 10 (≈ 1.82 to 18.2 µM)
12 | N#Cc1ccc2ccc(=O)n(CCN[C@@H]3CC[C@@H]4[C@@H](C3)OC(=O)N4c3ncc4c(n3)NC(=O)CO4)c2c1 [Compound 37, 1-(2-{[(3aR,6R,7aR)-2-oxo-3-{7-oxo-6H,7H,8H-pyrimido[5,4-b][1,4]oxazin-2-yl}-octahydro-1,3-benzoxazol-6-yl]amino}ethyl)-2-oxo-1,2-dihydroquinoline-7-carbonitrile] | 1 to 10 (≈ 1.99 to 19.9 µM) | 1 to 10 (≈ 1.99 to 19.9 µM) |  | < 1 | 1 to 10 (≈ 1.99 to 19.9 µM) |  | < 1 | < 1 | > 100 |  | < 1 | < 1 |  | 
